In ChEMBL document CHEMBL1201862, “PubChem BioAssay data set” (2004):
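Compound exposure: 48 hours, 5 concentrations, 96-well plates. At the GI50, growth is halved.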 Active and inactive are the calls of the source. No stated cut-off is given here; in the data, active = GI50 up to about 1.1 µM and inactive = higher.

How the values were obtained:
Experiment in all cases: NCI anticancer screen, dose series, 48 h
OVCAR-8 = tested on: OVCAR-8
RXF 393 = tested on: RXF 393
EKVX = tested on: EKVX
M14 = tested on: M14
HCT-116 = tested on: HCT-116
M19-MEL = tested on: M19-MEL
SW-620 = tested on: SW-620
CCRF-CEM = tested on: CCRF-CEM
SF-295 = tested on: SF-295
SF-539 = tested on: SF-539
DMS-114 = tested on: DMS-114
DLD-1 = tested on: DLD-1
NCI-H460 = tested on: NCI-H460
SR = tested on: SR
HL-60 = tested on: HL-60
COLO 205 = tested on: COLO 205
NCI-H522 = tested on: NCI-H522
SK-MEL-2 = tested on: SK-MEL-2
SF-268 = tested on: SF-268
TK-10 = tested on: TK-10
SN12C = tested on: SN12C
ACHN = tested on: ACHN
SNB-75 = tested on: SNB-75
SK-MEL-5 = tested on: SK-MEL-5
CAKI-1 = tested on: CAKI-1
DMS-273 = tested on: DMS-273
HOP-18 = tested on: HOP-18
SNB-78 = tested on: SNB-78
UO-31 = tested on: UO-31
LXFL 529 = tested on: LXFL 529
SK-OV-3 = tested on: SK-OV-3
RPMI-8226 = tested on: RPMI-8226
A498 = tested on: A498
U-251 = tested on: U-251
HOP-92 = tested on: HOP-92
786-0 = tested on: 786-0
OVCAR-3 = tested on: OVCAR-3
KM-20L2 = tested on: KM-20L2
HCT-15 = tested on: HCT-15
A549 = tested on: A549
Malme-3M = tested on: Malme-3M
SK-MEL-28 = tested on: SK-MEL-28
HT-29 = tested on: HT-29
NCI-H23 = tested on: NCI-H23
SNB-19 = tested on: SNB-19
MOLT-4 = tested on: MOLT-4
XF498 = tested on: XF498
OVCAR-5 = tested on: OVCAR-5
HCC 2998 = tested on: HCC 2998
UACC-257 = tested on: UACC-257
NCI-H226 = tested on: NCI-H226
HOP-62 = tested on: HOP-62
LOX IMVI = tested on: LOX IMVI
IGROV-1 = tested on: IGROV-1
K562 = tested on: K562
OVCAR-4 = tested on: OVCAR-4
UACC-62 = tested on: UACC-62
KM12 = tested on: KM12

Measured: GI50

COC1O[C@H]2CCN(C(=O)OCc3ccccc3)[C@H]2[C@H]1OCc1ccccc1 (stereo partly specified)
inactive: OVCAR-8 69.7 µM | RXF 393 50 µM | EKVX 49.2 µM | M14 46.3 µM | HCT-116 46.6 µM | M19-MEL 53 µM | SW-620 50.2 µM | CCRF-CEM 34.9 µM | SF-295 49.9 µM | SF-539 > 100 µM | DMS-114 29.6 µM | DLD-1 48.3 µM | NCI-H460 44.3 µM | SR 30.3 µM | HL-60 28.4 µM | COLO 205 70.3 µM | NCI-H522 37.6 µM | SK-MEL-2 29.8 µM | SF-268 50.2 µM | TK-10 > 41.4 µM | SN12C > 100 µM | ACHN 39.6 µM | SNB-75 41.9 µM | SK-MEL-5 24.1 µM | CAKI-1 40.3 µM | DMS-273 39.1 µM | HOP-18 > 100 µM | SNB-78 54.8 µM | UO-31 29.2 µM | LXFL 529 40.2 µM | SK-OV-3 23.6 µM | RPMI-8226 41 µM | A498 > 100 µM | U-251 45.9 µM | HOP-92 26.6 µM | 786-0 > 100 µM | OVCAR-3 42.6 µM | KM-20L2 69.2 µM | A549 4.33 µM | Malme-3M 45.6 µM | SK-MEL-28 41.2 µM | HT-29 40.9 µM | NCI-H23 20.3 µM | SNB-19 89.3 µM | MOLT-4 36 µM | XF498 35.2 µM | OVCAR-5 > 100 µM | HCC 2998 47.6 µM | UACC-257 43.8 µM | NCI-H226 78 µM | HOP-62 > 100 µM | LOX IMVI 56.6 µM | IGROV-1 49.5 µM | K562 30.5 µM | OVCAR-4 > 62.4 µM | UACC-62 21.5 µM
36.5 µM: HCT-15

[N-]=[N+]=NC(CI)c1cn([C@H]2C[C@H](O)[C@@H](CO)O2)c(=O)[nH]c1=O (stereo partly specified)
inactive: OVCAR-8 > 100 µM | RXF 393 > 100 µM | EKVX > 100 µM | M14 > 100 µM | HCT-116 > 100 µM | M19-MEL > 100 µM | KM12 > 100 µM | SW-620 > 100 µM | CCRF-CEM > 100 µM | SF-295 > 100 µM | SF-539 > 100 µM | DMS-114 56 µM | DLD-1 > 100 µM | NCI-H460 29.8 µM | SR > 100 µM | HL-60 54.1 µM | COLO 205 > 100 µM | NCI-H522 > 100 µM | SK-MEL-2 > 100 µM | TK-10 > 100 µM | SN12C > 100 µM | ACHN > 100 µM | SNB-75 > 100 µM | SK-MEL-5 > 100 µM | CAKI-1 > 100 µM | DMS-273 > 100 µM | HOP-18 2.92 µM | SNB-78 > 100 µM | UO-31 > 100 µM | LXFL 529 > 100 µM | SK-OV-3 > 100 µM | RPMI-8226 51.5 µM | U-251 > 100 µM | HOP-92 > 100 µM | 786-0 63.2 µM | OVCAR-3 > 100 µM | KM-20L2 > 100 µM | A549 41.5 µM | Malme-3M > 100 µM | SK-MEL-28 > 100 µM | HT-29 > 100 µM | NCI-H23 90.4 µM | SNB-19 > 100 µM | MOLT-4 > 100 µM | XF498 80.2 µM | OVCAR-5 > 100 µM | HCC 2998 85.1 µM | NCI-H226 > 100 µM | HOP-62 > 100 µM | LOX IMVI > 100 µM | IGROV-1 > 100 µM | K562 83.9 µM | UACC-62 > 100 µM
> 100 µM: HCT-15
